Results: patent US9006450B2 (Boehringer Ingelheim International GmbH, priority 2010, dated 2015)

biological target: T1, human ACC2 (Homo sapiens, UniProt O00763); assay: ACC2 assay, spectrophotometric 384 well assay (NADH-linked, coupled lactate dehydrogenase/pyruvate kinase); assay type: biochemical; details: ACC2 assay, hACC2 construct lacking 128 N-terminal amino acids, 25° C., 340 nm; read-out: IC50
T1 construct: made in house; host or cells: insect cells (baculoviral expression system)
Procedure: Spectrophotometric 384 Well Assay
Malonyl CoA formation by acetyl CoA carboxylases is stoichometrically linked to the consumption of ATP. ACC2 activity is measured in a NADH-linked kinetic method measuring ADP generated during the ACC reaction using a coupled lactate dehydrogenase/pyruvate kinase reaction.
For biological testing, a human ACC2 construct which lacks the 128 amino acids at the N-terminus for increased solubility (nt 385-6966 in Genbank entry AJ575592) is cloned. The protein is then expressed in insect cells using a baculoviral expression system. Protein purification is performed by anion exchange.
All compounds are dissolved in dimethyl sulfoxide (DMSO) to a concentration of 10 mM.
Assay reactions are then carried out in 384-well plates, with hACC2 in an appropriate dilution and at final assay concentrations (f.c.) of 100 mM Tris (pH 7.5), 10 mM trisodium citrate, 25 mM KHCO3, 10 mM MgCl2, 0.5 mg/mL BSA, 3.75 mM reduced L-glutathione, 15 U/mL lactate dehydrogenase, 0.5 mM phosphoenolpyruvate, 15 U/mL pyruvate kinase, compounds at different concentrations at final DMSO concentrations of 1%.
The enzymatic reaction is then started by addition of a mixture of NADH, acetyl Coenzyme A (both 200 μM f.c.) and ATP (500 uM f.c.). The decrease of the optical density (slope S) is then determined at 25° C. at a wavelength of 340 nm over 15 minutes in a spectrophotometric reader.
Each assay microtiter plate contains wells with vehicle instead of compound as controls for the non-inhibited enzyme (100% CTL; ‘HIGH’) and wells without acetyl-CoA as controls for non-specific NADH degradation (0% CTL; ‘LOW’).
The slope S is used for calculation of % CTL=(S(compound)−S('LOW'))/(S('HIGH')−S('LOW'))*100. Compounds will give values between 100% CTL (no inhibition) and 0% CTL (complete inhibition).
For IC50 value determination, the sample slope in the presence of the test compound after subtraction of the low controls (S(compound)−S('LOW')) are used.
An IC50 value is derived from the compound slopes at different dosages after subtraction of the low controls (S(compound)−S('LOW')) by non-linear regression curve fitting (equation y=(A+((B−A)/(1+((C/x)^D))))).

T1 sequence (O00763 129-2458 limits assumed): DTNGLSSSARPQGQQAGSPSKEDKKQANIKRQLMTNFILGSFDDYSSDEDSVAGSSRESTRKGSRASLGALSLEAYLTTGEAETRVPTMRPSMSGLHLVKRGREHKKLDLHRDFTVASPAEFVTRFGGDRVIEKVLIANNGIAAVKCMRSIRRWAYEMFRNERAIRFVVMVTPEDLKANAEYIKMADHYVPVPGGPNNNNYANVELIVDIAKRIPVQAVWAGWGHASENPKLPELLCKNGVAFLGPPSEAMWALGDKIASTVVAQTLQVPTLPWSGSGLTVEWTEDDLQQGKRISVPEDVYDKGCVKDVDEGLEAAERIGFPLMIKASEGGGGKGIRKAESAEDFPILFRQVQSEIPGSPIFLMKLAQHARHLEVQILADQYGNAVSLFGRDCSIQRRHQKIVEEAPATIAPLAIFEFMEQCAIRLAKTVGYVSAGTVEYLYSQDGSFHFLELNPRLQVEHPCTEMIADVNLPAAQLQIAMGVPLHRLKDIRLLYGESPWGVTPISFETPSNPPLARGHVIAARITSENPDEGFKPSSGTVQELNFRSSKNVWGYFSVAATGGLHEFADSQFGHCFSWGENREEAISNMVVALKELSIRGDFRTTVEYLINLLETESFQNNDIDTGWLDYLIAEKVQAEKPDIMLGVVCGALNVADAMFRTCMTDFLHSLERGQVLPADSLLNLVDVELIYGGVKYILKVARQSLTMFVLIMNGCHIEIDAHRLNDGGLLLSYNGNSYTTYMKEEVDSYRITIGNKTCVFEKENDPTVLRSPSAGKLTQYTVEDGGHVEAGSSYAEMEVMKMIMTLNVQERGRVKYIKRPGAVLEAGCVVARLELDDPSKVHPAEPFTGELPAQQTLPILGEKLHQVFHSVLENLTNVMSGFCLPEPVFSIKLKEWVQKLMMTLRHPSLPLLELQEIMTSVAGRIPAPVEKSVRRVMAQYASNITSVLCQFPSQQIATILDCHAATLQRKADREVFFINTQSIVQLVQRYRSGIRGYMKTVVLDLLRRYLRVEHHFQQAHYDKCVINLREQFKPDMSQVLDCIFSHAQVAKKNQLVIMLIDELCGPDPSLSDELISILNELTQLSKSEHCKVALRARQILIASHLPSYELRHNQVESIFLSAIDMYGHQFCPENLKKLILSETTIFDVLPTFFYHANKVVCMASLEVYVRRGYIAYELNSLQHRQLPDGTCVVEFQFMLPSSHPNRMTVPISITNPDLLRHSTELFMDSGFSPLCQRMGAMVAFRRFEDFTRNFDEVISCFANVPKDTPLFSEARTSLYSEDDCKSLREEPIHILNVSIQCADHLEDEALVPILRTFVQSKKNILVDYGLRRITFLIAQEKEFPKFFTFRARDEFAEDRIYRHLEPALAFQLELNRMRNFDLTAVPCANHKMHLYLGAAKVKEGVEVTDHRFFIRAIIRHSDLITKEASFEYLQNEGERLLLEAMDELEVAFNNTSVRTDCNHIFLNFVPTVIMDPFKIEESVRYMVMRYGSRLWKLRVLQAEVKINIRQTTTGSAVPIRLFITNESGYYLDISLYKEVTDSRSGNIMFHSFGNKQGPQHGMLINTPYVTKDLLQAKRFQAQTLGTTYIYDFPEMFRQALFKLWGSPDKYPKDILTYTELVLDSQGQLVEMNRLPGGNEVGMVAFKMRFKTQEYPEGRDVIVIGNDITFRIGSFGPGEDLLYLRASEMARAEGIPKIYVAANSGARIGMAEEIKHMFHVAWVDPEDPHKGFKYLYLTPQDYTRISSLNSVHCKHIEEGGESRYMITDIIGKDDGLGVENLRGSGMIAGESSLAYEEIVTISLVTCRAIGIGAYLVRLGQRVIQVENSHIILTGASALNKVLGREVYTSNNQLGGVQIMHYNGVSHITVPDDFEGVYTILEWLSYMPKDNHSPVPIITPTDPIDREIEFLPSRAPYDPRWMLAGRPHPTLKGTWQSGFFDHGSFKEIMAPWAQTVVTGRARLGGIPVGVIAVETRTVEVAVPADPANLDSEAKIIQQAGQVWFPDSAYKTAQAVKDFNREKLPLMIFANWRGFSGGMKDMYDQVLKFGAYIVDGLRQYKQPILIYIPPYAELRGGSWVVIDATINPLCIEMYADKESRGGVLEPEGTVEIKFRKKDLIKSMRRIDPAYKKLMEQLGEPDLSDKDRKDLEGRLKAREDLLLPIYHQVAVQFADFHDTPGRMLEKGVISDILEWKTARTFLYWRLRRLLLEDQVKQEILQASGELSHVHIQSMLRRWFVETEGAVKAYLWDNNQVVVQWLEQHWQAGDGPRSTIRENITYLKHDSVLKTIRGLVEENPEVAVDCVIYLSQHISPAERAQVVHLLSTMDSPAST

| Structure (SMILES) | IC50 [nM] |
| --- | --- |
| COc1ccc(-c2cnc(N3CCC(c4ccc([C@H](C)NC(C)=O)cc4)CC3)nc2)cc1OC [Example 10.35] | 1100 |
| CCOc1ccc(N2CCC(c3ccc([C@H](C)NC(=O)CC4CC4)cc3)CC2)cc1 [Example 6.13] | 1100 |
| CC(=O)N[C@@H](C)c1ccc(C2CCN(c3ccnc(OCc4cccnc4)n3)CC2)cc1 [Example 11.34] | 23200 |
| CC(=O)N[C@@H](C)c1ccc(C2CCN(c3ccnc(OCCC(C)(C)C)n3)CC2)cc1 [Example 11.11] | 820 |
| CC(=O)N[C@@H](C)c1ccc(C2CCN(c3ccc(C)cn3)CC2)cc1 [Example 5.46] | 1600 |
| CC(=O)N[C@@H](C)c1ccc(C2CCN(c3cccc(C(F)(F)F)n3)CC2)cc1 [Example 4.19] | 100 |
| CC(=O)N[C@@H](C)c1ccc(C2CCN(c3ccc(C4(C#N)CC4)cn3)CC2)cc1 [Example 5.35] | 2800 |
| CCOc1ccc(N2CCC(c3ccc([C@H](C)NC(=O)CCOC)cc3)CC2)cc1 [Example 6.30] | 1100 |
| CCC(C)Oc1ccc(N2CCC(c3ccc([C@H](C)NC(C)=O)cc3)CC2)cc1 (stereo partly drawn) [Example 1.29] | 80 |
| CCOc1ccc(N2CCC(c3ccc([C@H](C)NC(=O)c4cccnc4)cc3)CC2)cc1 [Example 6.31] | 2800 |
| CC(=O)N[C@@H](C)c1ccc(C2CCN(c3ncc(-c4ccc5c(c4)OCO5)cc3F)CC2)cc1 [Example 10.313] | 120 |
| COC(=O)c1cnc(N2CCC(c3ccc([C@H](C)NC(C)=O)cc3)CC2)nc1 [Example 4.36] | 1200 |
| CC(=O)N[C@@H](C)c1ccc(C2CCN(c3ncc(-c4ccc(C5CC5)cc4)cn3)CC2)cc1 [Example 10.41] | 1900 |
| CC(=O)N[C@@H](C)c1ccc(C2CCN(c3cccc(OC(C)c4ccccc4)c3)CC2)cc1 (stereo partly drawn) [Example 9.18] | 150 |
| CC(=O)N[C@@H](C)c1ccc(C2CCN(c3ccc(I)cn3)CC2)cc1 [Example 5.12] | 220 |
| CCOc1ccc(N2CCC(c3ccc([C@H](C)NC(=O)C4CC4(F)F)cc3)CC2)cc1 (stereo partly drawn) [Example 6.23] | 420 |
| CC(=O)N[C@@H](C)c1ccc(C2CCN(c3ccc4[nH]c(C)cc4c3)CC2)cc1 [Example 1.76] | 1900 |
| CC(=O)N[C@@H](C)c1ccc(C2CCN(c3ncc(-c4ccc(C)cc4)cc3F)CC2)cc1 [Example 10.315] | 120 |
| CC(=O)N[C@@H](C)c1ccc(C2CCN(c3ccc(OCC4CC4)nc3C#N)CC2)cc1 [Example 1.183] | 150 |
| C[C@H](NC(=O)C1CC1)c1ccc(C2CCN(c3ccc(OCC4CCC4)cc3)CC2)cc1 [Example 1.141] | 320 |
| COC(=O)c1cnc(N2CCC(c3ccc([C@H](C)NC(C)=O)cc3)CC2)s1 [Example 4.101] | 2700 |
| CCOc1ccc(N2CCC(c3ccc(CC(C)NC(C)=O)cc3)CC2)c(F)c1 (stereo not drawn) [Example 2.12] | 530 |
| CC(=O)N[C@@H](C)c1ccc(C2CCN(c3ncc(C(C)(C)C)s3)CC2)cc1 [Example 4.102] | 470 |

| Structure (SMILES) | IC50 [nM] |
| --- | --- |
| CC(=O)N[C@@H](C)c1ccc(C2CCN(c3cc(-c4ccccc4)ncn3)CC2)cc1 [Example 4.22] | 1100 |
| CC(=O)N[C@@H](C)c1ccc(C2CCN(c3ccnc(NCC4CC4)n3)CC2)cc1 [Example 11.111] | 640 |
| CC(=O)N[C@@H](C)c1ccc(C2CCN(c3ncc(-c4cc5ccccc5o4)cn3)CC2)cc1 [Example 10.14] | 100 |
| CCCOc1ccc(N2CCC(c3ccc([C@H](C)NC(C)=O)cc3)CC2)c(OC)c1 [Example 1.31] | 180 |
| CC(=O)N[C@@H](C)c1ccc(C2CCN(c3cc(OCCc4ccccc4)ncn3)CC2)cc1 [Example 11.14] | 3500 |
| CC(=O)N[C@@H](C)c1ccc(C2CCN(c3ncc(-c4ccc(C(F)(F)F)cc4)cn3)CC2)cc1 [Example 10.45] | 1100 |
| CCCOc1ccc(N2CCC(c3ccc([C@H](C)NC(=O)N(C)C)cc3)CC2)nc1 [Example 1.178] | 170 |
| CC(=O)N[C@@H](C)c1ccc(C2CCN(c3cccc(OC4CCCCC4)c3)CC2)cc1 [Example 9.6] | 130 |
| CC(=O)Nc1cnc(N2CCC(c3ccc([C@H](C)NC(C)=O)cc3)CC2)nc1 [Example 4.34] | 9500 |
| CC(=O)N[C@@H](C)c1ccc(C2CCN(c3ncc(C(C)(C)C)cn3)CC2)cc1 [Example 4.38] | 440 |
| CC(=O)N[C@@H](C)c1ccc(C2CCN(c3ncc(-c4cccc5c4OCC5)cn3)CC2)cc1 [Example 10.92] | 370 |
| CC(=O)N[C@@H](C)c1ccc(C2CCN(c3cc(Oc4ccc(F)cc4)ncn3)CC2)cc1 [Example 11.5] | 200 |
| CC(=O)N[C@@H](C)c1ccc(C2CCN(c3cc(N(C)C4CC4)ncn3)CC2)cc1 [Example 11.87] | 790 |
| CCOc1ccc(N2CCC(c3ccc([C@H](C)NC(=O)OC)cc3)CC2)c(F)c1 [Example 1.170] | 400 |
| CCOc1ccc(N2CCC(c3ccc([C@H](C)NC(=O)c4ncn[nH]4)cc3)CC2)cc1 [Example 6.41] | 4100 |
| CCCOc1ccc(N2CCC(c3ccc([C@H](C)NC(=O)N(C)C)cc3)CC2)c(C#N)c1 [Example 1.123] | 70 |
| C[C@H](NC(=O)C1CC1)c1ccc(C2CCN(c3ncc(C#N)c(N(C)CC4CC4)n3)CC2)cc1 [Example 11.127] | 3500 |
| CC(=O)N[C@@H](C)c1ccc(C2CCN(c3ccc(Cl)c(C)c3)CC2)cc1 [Example 1.156] | 600 |
| CC(C)COc1ccc(N2CCC(c3ccc([C@H](C)NC(=O)N(C)C)cc3)CC2)cc1 [Example 1.122] | 120 |
| C[C@H](NC(=O)N(C)C)c1ccc(C2CCN(c3ccc(OCC4CCC4)cc3)CC2)cc1 [Example 1.142] | 60 |
| COc1ccc(N2CCC(c3ccc([C@H](C)NC(C)=O)cc3)CC2)cc1 [Example 1.30] | 230 |
| CCOC(=O)c1cc(C#N)c(N2CCC(c3ccc([C@H](C)NC(C)=O)cc3)CC2)nc1C(F)(F)F [Example 5.15] | 4900 |

Other lines, results leading:

| IC50 [nM] | Structure (SMILES) |
| --- | --- |
| 23100 | CC(=O)N[C@@H](C)c1ccc(C2CCN(c3ncc(C(=O)NCC(O)C(F)(F)F)cn3)CC2)cc1 (stereo partly drawn) [Example 18.63] |
| 2700 | CCNC(=O)N[C@@H](C)c1ccc(C2CCN(c3ccc(OCC)cc3)CC2)cc1 [Example 14.2] |
| 700 | COCCOc1cc(N2CCC(c3ccc([C@H](C)NC(C)=O)cc3)CC2)ccn1 [Example 19.3] |
| 21400 | CC(=O)N[C@@H](C)c1ccc(C2CCN(c3ncc(C(=O)NCC4CCCCO4)cn3)CC2)cc1 (stereo partly drawn) [Example 18.41] |
| 8900 | CCOc1ccc(N2CCC(c3ccc([C@H](C)NC(=O)CC(=O)NC)cc3)CC2)cc1 [Example 33.2] |
| 27200 | CC(=O)N[C@@H](C)c1ccc(C2CCN(c3ncc(C(=O)NCCC#N)cn3)CC2)cc1 [Example 18.80] |
| 110 | CC(=O)N[C@@H](C)c1ccc(C2CCN(c3ccnc(OCC(F)F)c3)CC2)cc1 [Example 19.19] |
| 10200 | CC(=O)N[C@@H](C)c1ccc(C2CCN(c3ncc(C(=O)NCC4CCCCN4)cn3)CC2)cc1 (stereo partly drawn) [Example 18.65] |
| 2500 | CC(=O)N[C@@H](C)c1ccc(C2CCN(c3ncc(C(=O)N(C)C4CC4)cn3)CC2)cc1 [Example 18.26] |
| 1600 | CCOc1ccc(N2CCC(c3ccc([C@H](C)NC(=O)CN(C)C)cc3)CC2)cc1 [Example 36.1, (S)-2-(Dimethylamino)-N-(1-{4-[1-(4-ethoxyphenyl)piperidin-4-yl]phenyl}ethyl)acetamide] |
| 1200 | CCOc1ccc(-c2nccc(N3CCC(c4ccc([C@H](C)NC(C)=O)cc4)CC3)n2)cc1 [Example 22.6] |
| 16700 | CC(=O)N[C@@H](C)c1ccc(C2CCN(c3ncc(C(=O)NC4CCNCC4)cn3)CC2)cc1 [Example 18.79] |
| 390 | CC(=O)N[C@@H](C)c1ccc(C2CCN(c3nccc(-c4ccc(C#N)s4)n3)CC2)cc1 [Example 22.11] |
| 2600 | CC(=O)N[C@@H](C)c1ccc(C2CCN(c3ncc(C(=O)NCc4cc[nH]n4)cn3)CC2)cc1 [Example 18.21] |
| 4200 | CCOc1ccc(N2CCC(c3ccc([C@H](C)NS(=O)(=O)CC)cc3)CC2)cc1 [Example 17.2] |
| 3300 | CCOc1ccc(-c2ccnc(N3CCC(c4ccc([C@H](C)NC(C)=O)cc4)CC3)n2)cc1 [Example 22.12] |
| 1800 | CC(=O)N[C@@H](C)c1ccc(C2CCN(c3ncc(C(=O)N(C)c4ccc(C)cc4)cn3)CC2)cc1 [Example 18.4] |
| 7200 | CCOc1ccc(N2CCC(c3ccc([C@H](C)NC(=O)CC(=O)O)cc3)CC2)cc1 [Example 32.1, (S)-3-(1-(4-(1-(4-Ethoxyphenyl)piperidin-4-yl)phenyl)ethylamino)-3-oxopropanoic Acid] |
